Source: patent US9351955B2, “Compounds and pharmaceutical compositions thereof for the treatment of cystic fibrosis” (Galapagos NV, priority 2013, dated 2016)

How the values were obtained:
CFTR ΔF508 mutant = target: T1, CFTR ΔF508 mutant (Homo sapiens, UniProt P13569, DEL508-508); test: YFP-halide influx assay for the CFTR-ΔF508 mutation (384 well, CFBE41o- cells, FDSS/μCell); format: cell-based; details: forskolin 10.67 μM, fluorescence after 36 seconds, read-out: EC50 measured by YFP-halide influx assay for the CFTR-ΔF508
T1 construct: expressed in transfected cells; host or cells: CFBE41o- (adenoviral transduction)
How it was run: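 CFBE41o- cells were adenovirally transduced with ΔF508 CFTR and the YFP H148Q/I152L reporter. Cells were then held 24 h at 27 °C or treated 24 h at 37 °C with a CFTR modulator. Iodide-induced quench was recorded for 2 min, and EC50 was derived from 1−F/F0 at 36 s against compound concentration.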

CFTR G551D mutant = target: T2, CFTR G551D mutant (Homo sapiens, UniProt P13569, G551D); test: YFP-halide influx assay for the CFTR-G551D mutation (HEK293 cells); format: cell-based; details: HEK293 cells expressing CFTR G551D and YFP reporter; forskolin 10.67 μM; read-out: EC50 measured by YFP-halide influx assay for the CFTR-G551D
T2 construct: expressed in transfected cells; host or cells: HEK293 (reverse transfection with plasmids)
How it was run: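 HEK293 cells reverse-transfected with CFTR G551D and halide-sensitive YFP, expressed 24 h at 37 °C. Iodide-induced fluorescence quench recorded for 7 s after I^− injection; response as 1−F/F0, EC50 from concentration plot.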

T2 sequence (P13569 whole entry G551D): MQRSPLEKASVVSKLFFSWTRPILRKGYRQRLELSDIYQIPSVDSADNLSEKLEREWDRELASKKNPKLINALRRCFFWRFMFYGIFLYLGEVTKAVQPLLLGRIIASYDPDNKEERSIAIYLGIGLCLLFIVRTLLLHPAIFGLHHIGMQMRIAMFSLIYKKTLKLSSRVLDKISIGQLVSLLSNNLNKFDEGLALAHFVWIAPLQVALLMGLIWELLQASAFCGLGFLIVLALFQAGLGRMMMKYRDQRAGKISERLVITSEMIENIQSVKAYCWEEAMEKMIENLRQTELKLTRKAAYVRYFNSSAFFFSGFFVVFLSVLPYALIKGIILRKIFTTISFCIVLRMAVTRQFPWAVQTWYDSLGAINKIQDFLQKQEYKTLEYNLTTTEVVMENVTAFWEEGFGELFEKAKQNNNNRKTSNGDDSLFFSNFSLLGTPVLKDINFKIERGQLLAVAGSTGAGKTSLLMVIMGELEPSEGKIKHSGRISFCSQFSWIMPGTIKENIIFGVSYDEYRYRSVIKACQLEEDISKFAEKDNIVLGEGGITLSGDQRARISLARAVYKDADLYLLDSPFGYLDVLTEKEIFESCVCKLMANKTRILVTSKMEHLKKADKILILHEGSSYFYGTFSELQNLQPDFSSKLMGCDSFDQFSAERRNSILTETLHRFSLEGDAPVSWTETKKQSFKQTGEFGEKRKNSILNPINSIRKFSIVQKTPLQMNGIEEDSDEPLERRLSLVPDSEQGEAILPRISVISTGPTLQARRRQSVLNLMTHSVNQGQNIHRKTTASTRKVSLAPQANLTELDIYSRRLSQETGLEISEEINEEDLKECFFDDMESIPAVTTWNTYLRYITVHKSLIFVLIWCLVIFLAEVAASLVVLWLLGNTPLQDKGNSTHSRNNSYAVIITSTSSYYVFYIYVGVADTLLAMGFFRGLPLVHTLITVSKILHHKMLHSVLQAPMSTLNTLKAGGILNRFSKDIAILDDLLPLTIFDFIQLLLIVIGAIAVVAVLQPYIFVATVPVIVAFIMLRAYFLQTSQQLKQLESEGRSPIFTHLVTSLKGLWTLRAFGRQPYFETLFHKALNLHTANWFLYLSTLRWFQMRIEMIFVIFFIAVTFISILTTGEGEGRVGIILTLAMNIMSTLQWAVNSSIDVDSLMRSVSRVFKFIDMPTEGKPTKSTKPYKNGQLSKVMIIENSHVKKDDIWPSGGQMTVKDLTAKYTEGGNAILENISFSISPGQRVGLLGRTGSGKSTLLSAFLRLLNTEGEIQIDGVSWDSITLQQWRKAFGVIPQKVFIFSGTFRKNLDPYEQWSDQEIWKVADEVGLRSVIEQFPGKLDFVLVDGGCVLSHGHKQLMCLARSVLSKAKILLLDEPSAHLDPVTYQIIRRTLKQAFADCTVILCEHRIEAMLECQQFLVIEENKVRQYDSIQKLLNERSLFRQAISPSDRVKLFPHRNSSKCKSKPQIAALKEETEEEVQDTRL
T1 sequence (P13569 with tags, fused parts or gaps DEL508-508): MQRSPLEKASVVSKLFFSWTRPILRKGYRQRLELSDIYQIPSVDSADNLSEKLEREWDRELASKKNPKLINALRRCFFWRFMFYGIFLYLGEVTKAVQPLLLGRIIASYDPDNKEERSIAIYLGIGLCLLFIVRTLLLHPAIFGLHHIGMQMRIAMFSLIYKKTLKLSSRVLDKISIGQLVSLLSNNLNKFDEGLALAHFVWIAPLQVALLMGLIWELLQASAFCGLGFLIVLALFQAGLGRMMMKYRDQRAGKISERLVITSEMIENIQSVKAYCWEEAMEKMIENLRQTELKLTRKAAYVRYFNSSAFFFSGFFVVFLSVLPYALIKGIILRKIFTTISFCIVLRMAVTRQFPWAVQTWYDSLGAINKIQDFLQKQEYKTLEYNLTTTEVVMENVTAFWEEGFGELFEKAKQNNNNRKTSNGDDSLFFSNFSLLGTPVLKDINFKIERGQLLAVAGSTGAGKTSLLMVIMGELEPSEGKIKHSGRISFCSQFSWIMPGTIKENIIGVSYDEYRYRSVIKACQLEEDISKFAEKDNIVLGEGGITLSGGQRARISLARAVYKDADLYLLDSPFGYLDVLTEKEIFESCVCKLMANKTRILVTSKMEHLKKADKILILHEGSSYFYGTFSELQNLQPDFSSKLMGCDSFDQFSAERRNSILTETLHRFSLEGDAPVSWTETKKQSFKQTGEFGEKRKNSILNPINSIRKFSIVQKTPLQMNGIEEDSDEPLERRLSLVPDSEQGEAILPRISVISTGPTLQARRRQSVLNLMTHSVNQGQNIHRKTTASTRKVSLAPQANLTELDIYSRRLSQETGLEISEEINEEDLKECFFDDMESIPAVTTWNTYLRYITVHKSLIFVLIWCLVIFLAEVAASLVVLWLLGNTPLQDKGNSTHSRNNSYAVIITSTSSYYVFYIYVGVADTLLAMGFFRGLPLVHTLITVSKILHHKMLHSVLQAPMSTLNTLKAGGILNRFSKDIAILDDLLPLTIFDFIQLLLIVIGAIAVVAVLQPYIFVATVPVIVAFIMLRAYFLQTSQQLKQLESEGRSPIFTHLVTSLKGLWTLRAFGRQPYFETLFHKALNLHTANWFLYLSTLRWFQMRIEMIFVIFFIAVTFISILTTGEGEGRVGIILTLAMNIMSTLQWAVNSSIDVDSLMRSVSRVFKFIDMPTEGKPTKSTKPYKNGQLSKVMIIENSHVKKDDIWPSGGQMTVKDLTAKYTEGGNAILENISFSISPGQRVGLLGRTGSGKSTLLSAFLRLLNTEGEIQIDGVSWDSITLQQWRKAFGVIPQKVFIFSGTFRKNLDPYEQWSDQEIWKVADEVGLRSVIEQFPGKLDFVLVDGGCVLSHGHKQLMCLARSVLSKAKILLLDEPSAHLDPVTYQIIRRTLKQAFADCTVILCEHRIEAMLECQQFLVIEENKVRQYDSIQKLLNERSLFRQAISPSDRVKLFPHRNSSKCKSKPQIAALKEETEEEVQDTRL

EC50 (CFTR ΔF508 mutant) [nM]	EC50 (CFTR G551D mutant) [nM]	Compound
3.4	500	CC1(C)Cc2c(sc(NC(=O)c3ccn[nH]3)c2C(N)=O)C(C)(C)O1 [Compound 2, N-(3-carbamoyl-5,5,7,7-tetramethyl-5,7-dihydro-4H-thieno[2,3-c]pyran-2-yl)-1H-pyrazole-5-carboxamide]
22.6	1340	CC1(C)Cc2c(sc(NC(=O)C3(O)CC3)c2C(N)=O)C(C)(C)O1 [Compound 4, 2-(1-hydroxycyclopropanecarboxamido)-5,5,7,7-tetramethyl-5,7-dihydro-4H-thieno[2,3-c]pyran-3-carboxamide]
15.1	1000	CC1(C)Cc2c(sc(NC(=O)C3(CO)CC3)c2C(N)=O)C(C)(C)O1 [Compound 9, 2-(1-(hydroxymethyl)cyclopropanecarboxamido)-5,5,7,7-tetramethyl-5,7-dihydro-4H-thieno[2,3-c]pyran-3-carboxamide]
74.6	2650	CC1(C)Cc2c(sc(NC(=O)C(C)(C)CO)c2C(N)=O)C(C)(C)O1 [Compound 10, 2-(3-hydroxy-2,2-dimethylpropanamido)-5,5,7,7-tetramethyl-5,7-dihydro-4H-thieno[2,3-c]pyran-3-carboxamide]
